Experimental data: patent publication US8524911B2, “3-arylamino pyridine derivatives” (Merck Serono SA, priority 2004, dated 2013)

What follows are molecules tested against human MEK1 (Homo sapiens, UniProt Q02750) (assay: MEK-1 Enzyme Assay (LANCE-HTRF)). Conditions: 100 nM MEK1, 15 μM ATP, 300 nM ERK2, two hours; read-out: MEK inhibition.
Assay type: biochemical
Method: Assay 1: MEK-1 Enzyme Assay (LANCE-HTRF)
The activity of the compounds of the present invitation may be determined by the following procedure; Inhibition of human MEK1 kinase activity was monitored with a homogenous, fluorescence based assay. The assay uses time resolved fluorescence resonance energy transfer to probe for phosphorylation of ERK1 by MEK1. The assay is carried out in low volume 96 well microtiterplates. […] After two hours, 5 nM Europium-anti-PY20 (Perkin Elmer) and 50 nM Anti-GST-Allophycocyanin (CisBio) in buffer containing 50 mM EDTA and 0.05% BSA are added and the reaction incubated for one hour in the dark. Time-resolved fluorescence is measured using a LJL-Analyst (Molecular Devices) with an excitation wavelength of 340 nm and an emission wavelength of 665 nm. The final concentration of DMSO is 2%.

Chain of human MEK1 (Q02750 whole entry): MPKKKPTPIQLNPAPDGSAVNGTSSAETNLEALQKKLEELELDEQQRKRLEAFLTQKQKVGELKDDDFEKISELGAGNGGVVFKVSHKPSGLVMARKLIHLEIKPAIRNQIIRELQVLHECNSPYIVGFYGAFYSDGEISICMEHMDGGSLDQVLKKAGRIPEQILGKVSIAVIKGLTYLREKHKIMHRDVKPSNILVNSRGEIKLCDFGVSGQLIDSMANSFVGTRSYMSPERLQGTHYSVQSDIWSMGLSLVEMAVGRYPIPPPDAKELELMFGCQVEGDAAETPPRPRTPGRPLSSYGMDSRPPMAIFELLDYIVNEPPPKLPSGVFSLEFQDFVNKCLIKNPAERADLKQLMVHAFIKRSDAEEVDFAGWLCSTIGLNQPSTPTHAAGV

IC50 [nM] | Structure (SMILES)
< 1000 | O=C(O)c1ccncc1Nc1ccc(I)cc1 [Example 73, 3-(4-iodo-phenylamino)-isonicotinic acid]
1000 to 10000 | O=C(O)c1ccncc1Nc1ccc(SC(F)(F)F)cc1 [Example 119, 3-(4-Trifluoromethylsulfanyl-phenylamino)-isonicotinic acid]
< 1000 | CCOC(CCCNC(=O)c1ccncc1Nc1ccc(I)cc1F)OCC [Example 107, N-(4,4-diethoxybutyl)-3-[(2-fluoro-4-iodophenyl)amino]-isonicotinamide]
< 1000 | O=C(NCc1ccc(F)cc1)c1ccncc1Nc1ccc(I)cc1F [Example 108, N-(4-Fluoro-benzyl)-3-(2-fluoro-4-iodo-phenylamino)-iso-nicotinamide]
< 1000 | O=C(NCCCN1CCNCC1)c1ccncc1Nc1ccc(I)cc1F [Example 116, 3-(2-Fluoro-4-iodo-phenylamino)-N-(3-piperazin-1-yl-propyl)-isonicotinamide]
< 1000 | CN(CCO)C(=O)c1ccncc1Nc1ccc(I)cc1F [Example 37]
< 1000 | O=C(NOCc1c(F)c(F)c(F)c(F)c1F)c1ccncc1Nc1ccc(I)cc1F [Example 103, 3-[(2-fluoro-4-iodophenyl)amino]-N-[(pentafluorobenzyl)oxy]-isonicotinamide]
1000 to 10000 | CC1(C)OC[C@H](CONC(=O)c2cc[n+]([O-])cc2Nc2ccc(I)cc2F)O1 [Example 89, N-(2,2-Dimethyl-[1,3]dioxolan-4-ylmethoxy)-3-(2-fluoro-4-iodo-phenylamino)-1-oxy-isonicotinamide]
< 1000 | COc1cccc(NC(=O)c2ccncc2Nc2ccc(I)cc2F)c1 [Example 104, 3-[(2-fluoro-4-iodophenyl)amino]-N-(3-methoxyphenyl)-isonicotinamide]
< 1000 | Cc1nccc(C(=O)O)c1Nc1ccc(I)cc1F [Example 95, 3-(2-Fluoro-4-iodo-phenylamino)-2-methyl-isonicotinic acid]
< 1000 | Cc1cc(Br)ccc1Nc1cnccc1C(=O)O [Example 2, 3-[(4-Bromo-2-methylphenyl)amino]isonicotinic acid]
1000 to 10000 | CCONC(=O)c1cc[n+]([O-])cc1Nc1ccc(Br)cc1C [Example 6, 3-[(4-Bromo-2-methylphenyl)amino]-N-ethoxyisonicotinamide 1-oxide]
< 1000 | CCONC(=O)c1ccncc1Nc1ccc(Br)cc1F [Example 121, 3-[(4-Bromo-2-fluorophenyl)amino]-N-ethoxyisonicotinamide]
1000 to 10000 | COc1ccc(-c2cc(C(=O)O)c(Nc3ccc(I)cc3F)cn2)cc1 [Example 52, 5-[(2-fluoro-4-iodophenyl)amino]-2-(4-methoxyphenyl)isonicotinic acid]
1000 to 10000 | COc1ccc(Nc2cnccc2C(=O)O)cc1 [Example 118, 3-(4-Methoxy-phenylamino)-isonicotinic acid]
< 1000 | O=C(N[C@H]1CCCC[C@@H]1O)c1ccncc1Nc1ccc(I)cc1F (relative stereo) [Example 113, 3-(2-Fluoro-4-iodo-phenylamino)-N-(trans-2-hydroxy-cyclohexyl)-isonicotinamide]
< 1000 | O=C(O)c1ccnc(Cl)c1Nc1ccc(Br)cc1F [Example 125, 3-(4-Bromo-2-fluoro-phenylamino)-2-chloro-isonicotinic acid]
1000 to 10000 | CC1(C)OC[C@H](CONC(=O)c2ccnc(Cl)c2Nc2ccc(I)cc2F)O1 [Example 38, 2-Chloro-N-{[(4R)-2,2-dimethyl-1,3-dioxolan-4-yl]methoxy}-3-(2-fluoro-4-iodo-phenylamino)-isonicotinamide]
< 1000 | CCC(CO)(CO)NC(=O)c1ccncc1Nc1ccc(I)cc1F [Example 114, N-(1,1-Bis-hydroxymethyl-propyl)-3-(2-fluoro-4-iodo-phenyl-amino)-isonicotin-amide]
1000 to 10000 | O=C(NC1CCc2ccccc21)c1ccncc1Nc1ccc(I)cc1F (centres unmarked) [Example 59, N-(2,3-dihydro-1H-inden-1-yl)-3-[(2-fluoro-4-iodophenyl)amino]-isonicotinamide]
